Laboratory results published in patent US9422254B2, “Methoxyacrylate-based fungicide and methods for preparing and using the same” (priority 2008, dated 2016).
Values joined by “and” are separate entries in the source; they are usually repeats but may differ in a detail not shown here. Identical values can stand only once.

What was measured:
[1] = system: Gibberella zea; assay: organism not typed; assay type: cell-based; details: read-out: Inhibition rate (%)
[2] = system: Fusarium moniliforme; assay: microbe, parasite or virus in culture; assay type: cell-based; details: Fusarium verticillioides, read-out: Inhibition rate (%)
[3] = system: Pyricularia oryzae; assay: microbe, parasite or virus in culture; assay type: cell-based; details: read-out: Inhibition rate (%)
[4] = system: cucumber downy mildew; assay: Field efficacy trial of emulsifier concentrate 1, cucumber downy mildew; assay type: in vivo
Experimental: (§1) To a beaker (1000 mL), 50 g (100% basis) of the compound of Formula (I), 150 g of DMF, and 50 g of acetone were added and stirred for dissolution. To the solution, 25 g of pesticide emulsifier No. 500 and 50 g of Tween 80, 20 g of epoxidized soybean oil, and […] of toluene were added. Thus, the emulsifier concentrate 1 having 5 wt. % of the compound of Formula (I) was obtained and further packed.
(§2) On the basis of indoor activity evaluation, field efficacy trials of the compound of Formula (I) on cucumber downy mildew, cucumber powdery mildew, and melon powdery mildew were conducted.

[5] = system: Fusarium oxysporum; assay: microbe, parasite or virus in culture; assay type: cell-based; details: read-out: Inhibition rate (%)
[6] = system: Cucumber sclerotinia rot (strain HGJH); assay: In vivo micro-screening assay
Experimental: In Vivo Micro-Screening Assay
(§5) To further study the fungicidal spectrum of the compound of Formula (I), indoor in vivo micro-screening assay were carried out on cucumber gray mold, cucumber scab, cucumber sclerotinia rot, cucumber brown spot, pepper phytophthora blight, and rice sheath blight.
(§6) Cucumber scab strain: HX; cucumber brown spot strain: SDHGHB060509; cucumber sclerotinia rot strain: HGJH; pepper phytophthora blight strain: NSGP; and rice sheath blight strain: WK-1.
(§7) Medicament to be tested and medicament of control groups were prepared as needed in a sunny morning. Cucumber gray mold, cucumber scab, cucumber brown spot, cucumber sclerotinia rot, and rice sheath blight were medicated by spray, and after air dry, pathogens of cucumber scab and of cucumber brown spot were inoculated through spraying spore suspension respectively, pathogens of cucumber gray mold, of cucumber sclerotinia rot, and of rice sheath blight were inoculated through lawn foliage. Pepper phytophthora blight was medicated and inoculated by root-irrigation. Subsequently, all seedlings were cultured in wet environment.
(§8) After the disease of control groups were serious, spot area, disease index, and the diseased seedling rate were investigated to calculate the efficacy. Cucumber scab, cucumber brown spot, and pepper phytophthora blight were investigated by grading method. The spot extension area of cucumber gray mold and of rice sheath blight was investigated. The diseased seedling rate of cucumber sclerotinia rot was investigated. Disease index=Σ(amount of infected diseased leaves in a grade×relative value of the grade)×100/(total amount of leaves×9); Diseased seedling rate (%)=(total amount of seedlings−amount of diseased seedlings)/total amount of seedlings×100% Prevention and treatment effect (%)=(disease of control group−disease of experiment group)/disease of control group×100%

[7] = system: Phytophthora infestans; assay: microbe, parasite or virus in culture; assay type: cell-based; details: read-out: Inhibition rate (%)
[8] = system: guinea pig skin; assay: Skin sensitization test; assay type: in vivo
Experimental: (§3) The toxicological indexes of the compound were tested following the standard GB15670-1995 “Toxicological test methods of pesticides for registration” by Tongji Medical College, Huazhong University of Science and Technology.

[9] = system: Rice sheath blight (strain WK-1); assay: In vivo micro-screening assay
Experimental: In Vivo Micro-Screening Assay
as §5, §6, §7, §8

[10] = system: Phytophthora capsici; assay: microbe, parasite or virus in culture; assay type: cell-based; details: read-out: Inhibition rate (%)
[11] = target: NADH oxidase (NOX) (Sus scrofa, UniProt P24964); assay: Enzyme activity test, NOX; assay type: biochemical; details: azoxystrobin as control agent
Experimental: (§4) Take NADH oxidase (NOX), succinate-cytochrome C oxidase (SCO), and Complex III as target enzymes, the inhibitory activity of the compound of Formula (I) was tested.
^a NOX is generally used to detect an inhibitor of Complex I and Complex III; SCO is generally used to detect an inhibitor of Complex II and Complex III. Thus, an inhibitor of Complex III should have inhibitory activity on the two enzymes.

[12] = target: T1, cytochrome bc1 complex of pig heart (Sus scrofa, UniProt P24964); assay: Enzyme activity test, Complex III; assay type: biochemical
T1 construct: The test target is cytochrome bc1 complex of pig heart; from tissue; host or cells: pig heart
Experimental: as §4
^b The test target is cytochrome bc1 complex of pig heart.

[13] = system: Cucumber gray mold (SC504002); assay: In vivo micro-screening assay
Experimental: In Vivo Micro-Screening Assay
as §5, §7, §8

[14] = system: rabbit's eye; assay: Eye stimulation test; assay type: in vivo
Experimental: as §3

[15] = system: Alternaria solani; assay: microbe, parasite or virus in culture; assay type: cell-based; details: read-out: Inhibition rate (%)
[16] = system: melon powdery mildew; assay: Field efficacy trial of emulsifier concentrate 1, melon powdery mildew; assay type: in vivo
Experimental: as §1, §2

[17] = system: Helminthosporium torulosum; assay: microbe, parasite or virus in culture; assay type: cell-based; details: Corynespora torulosa, read-out: Inhibition rate (%)
[18] = 25 mg/L, 5th day after third administration, Average
[19] = 25 mg/L, 5th day after third administration, No. 1-3
[20] = 25 mg/L, 9th day after third administration, Average
[21] = 25 mg/L, 9th day after third administration, No. 1-3
[22] = 25 mg/L, 12th day after second administration, Average
[23] = 25 mg/L, 12th day after second administration, No. 1-3
[24] = 50 mg/L, 5th day after third administration, Average
[25] = 50 mg/L, 5th day after third administration, No. 1-3
[26] = 50 mg/L, 9th day after third administration, Average
[27] = 50 mg/L, 9th day after third administration, No. 1-3
[28] = 50 mg/L, 12th day after second administration, Average
[29] = 50 mg/L, 12th day after second administration, No. 1-3
[30] = 100 mg/L, 5th day after third administration, Average
[31] = 100 mg/L, 5th day after third administration, No. 1-3
[32] = 100 mg/L, 9th day after third administration, Average
[33] = 100 mg/L, 9th day after third administration, No. 1-3
[34] = 100 mg/L, 12th day after second administration, Average
[35] = 12.5 mg/L, 7th day after first administration
[36] = 12.5 mg/L, 7th day after second administration
[37] = 12.5 mg/L, 14th day after second administration
[38] = 25 mg/L, 7th day after first administration
[39] = 25 mg/L, 7th day after second administration
[40] = 25 mg/L, 14th day after second administration
[41] = 50 mg/L, 7th day after first administration
[42] = 50 mg/L, 7th day after second administration
[43] = 50 mg/L, 14th day after second administration
[44] = 100 mg/L, 7th day after first administration
[45] = 100 mg/L, 7th day after second administration
[46] = 100 mg/L, 14th day after second administration

T1 sequence (P24964 whole entry, one chain of several): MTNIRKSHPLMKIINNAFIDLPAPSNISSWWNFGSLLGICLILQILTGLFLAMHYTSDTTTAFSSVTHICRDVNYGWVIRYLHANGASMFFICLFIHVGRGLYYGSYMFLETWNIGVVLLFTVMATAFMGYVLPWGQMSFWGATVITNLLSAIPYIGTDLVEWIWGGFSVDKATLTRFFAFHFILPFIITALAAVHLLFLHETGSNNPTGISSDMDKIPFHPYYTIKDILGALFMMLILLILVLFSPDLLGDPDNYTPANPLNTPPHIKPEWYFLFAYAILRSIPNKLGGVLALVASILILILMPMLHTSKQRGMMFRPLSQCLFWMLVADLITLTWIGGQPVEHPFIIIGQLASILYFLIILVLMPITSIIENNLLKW
NADH oxidase (NOX), sequence (P24964 whole entry): as the sequence (P24964 whole entry, one chain of several) above

Molecule `CO/C=C(/C(=O)OC)c1ccccc1CSc1nc2cc(OC)ccc2s1` [Compound of Formula (I), (E)-methyl 3-methoxy-2-(2-((5-methoxy-benzothiazol-2-ylthio)methyl)phenyl)acrylate] has an inhibition at 0.3 µg/mL [1] of 34.9%, an inhibition at 3 µg/mL [1] of 45.9% and an inhibition at 30 µg/mL [1] of 54.6%. For the same molecule, the inhibition at 0.3 µg/mL ([2]; 0.3 mg/L) was 9.6%, the inhibition at 3 µg/mL ([2]; 3 mg/L) was 30.8% and the inhibition at 30 µg/mL ([2]; 30 mg/L) was 43.6%. It also gave an inhibition at 0.3 µg/mL [3] of 23.6%, an inhibition at 3 µg/mL [3] of 56.5% and an inhibition at 30 µg/mL [3] of 82.6%. For the same molecule, the Disease index [4, 18] was 4.75, the “Efficacy (%)” value [4, 18] was 58.99% and the Disease index [4, 19] was 4.86 and 4.51. For the same molecule, the “Efficacy (%)” value [4, 19] was 57.99% and 60.99%, the Disease index [4, 20] was 11.50 and the “Efficacy (%)” value [4, 20] was 68.89%. The Disease index [4, 21] was 12.04 and 10.42, the “Efficacy (%)” value [4, 21] was 67.43% and 71.82% and the Disease index [4, 22] was 1.85. For the same molecule, the “Efficacy (%)” value [4, 22] was 69.24%, the Disease index [4, 23] was 1.74 and 2.08 and the “Efficacy (%)” value [4, 23] was 71.16% and 65.39%. For the same molecule, the Disease index [4, 24] was 3.94, the “Efficacy (%)” value [4, 24] was 65.99% and the Disease index [4, 25] was 3.47 and 4.51 and 3.82. For the same molecule, the “Efficacy (%)” value [4, 25] was 69.99% and 60.99% and 66.99%, the Disease index [4, 26] was 8.72 and the “Efficacy (%)” value [4, 26] was 76.41%. For the same molecule, the Disease index [4, 27] was 10.65 and 7.18 and 8.33, the “Efficacy (%)” value [4, 27] was 71.19% and 80.58% and 77.45% and the Disease index [4, 28] was 1.39. For the same molecule, the “Efficacy (%)” value [4, 28] was 76.93%, the Disease index [4, 29] was 1.04 and 1.74 and 1.39 and the “Efficacy (%)” value [4, 29] was 82.70% and 71.16% and 76.93%. For the same molecule, the Disease index [4, 30] was 2.55, the “Efficacy (%)” value [4, 30] was 77.99% and the Disease index [4, 31] was 2.08 and 2.43 and 3.13. The “Efficacy (%)” value [4, 31] was 81.99% and 78.99% and 72.99%, the Disease index [4, 32] was 7.10 and the “Efficacy (%)” value [4, 32] was 80.79%. The Disease index [4, 33] was 8.10 and 7.18 and 6.02, the “Efficacy (%)” value [4, 33] was 78.08% and 80.58% and 83.72% and the Disease index [4, 34] was 1.02. For the same molecule, the “Efficacy (%)” value [4, 34] was 83.04%, the “Efficacy (%)” value ([4]; 100 mg/L, 12th day after second administration, No. 1-3) was 83.71% and 76.93% and 88.46% and the inhibition at 0.3 µg/mL ([5]; 0.3 mg/L) was 29.4%. For the same molecule, the inhibition at 3 µg/mL ([5]; 3 mg/L) was 36.1%, the inhibition at 30 µg/mL ([5]; 30 mg/L) was 43.7% and the “Efficacy (%)” value ([6]; 100 mg/L) was 16.84%. For the same molecule, the “Spot area (mm^2)” value ([6]; 100 mg/L) was 70.08 mm^2, the “Efficacy (%)” value ([6]; 500 mg/L) was 58.88% and the “Spot area (mm^2)” value ([6]; 500 mg/L) was 34.65 mm^2. For the same molecule, the inhibition at 0.3 µg/mL [7] was 15.3%, the inhibition at 3 µg/mL [7] was 33.7% and the inhibition at 30 µg/mL [7] was 38%. For the same molecule, the Skin sensitization [8] was “Weak allergen (grade I) on guinea”, the “prevention and treatment effect” value [9] was “good prevention and treatment effect” and the Disease index ([9]; 100 mg/L) was 59.96. The “Efficacy (%)” value ([9]; 100 mg/L) was 61.67%, the Disease index ([9]; 500 mg/L) was 46.87 and the “Efficacy (%)” value ([9]; 500 mg/L) was 70.04%. The inhibition at 0.3 µg/mL ([10]; 0.3 mg/L) was 0%, the inhibition at 3 µg/mL ([10]; 3 mg/L) was 23.1% and the inhibition at 30 µg/mL ([10]; 30 mg/L) was 28.9%. For the same molecule, the “inhibitory activity on NOX compared with azoxystrobin” value [11] was “much higher inhibitory activity”, the IC50 [12] was 4 nM and the “inhibitory activity on Complex III compared with azoxystrobin” value ([12]; azoxystrobin as control agent) was “much higher inhibitory activity”. The “Efficacy (%)” value ([13]; 100 mg/L) was 88.71%, the “Spot area (mm^2)” value ([13]; 100 mg/L) was 6.82 mm^2 and the “Efficacy (%)” value ([13]; 500 mg/L) was 90.67%. The “Spot area (mm^2)” value ([13]; 500 mg/L) was 5.64 mm^2, the Eye stimulation [14] was “Mild stimulation on rabbit's eye” and the inhibition at 0.3 µg/mL ([15]; 0.3 mg/L) was 32.4%. For the same molecule, the inhibition at 3 µg/mL ([15]; 3 mg/L) was 39.2%, the inhibition at 30 µg/mL ([15]; 30 mg/L) was 43.9% and the Disease index [16, 35] was 8.80. The “Efficacy (%)” value [16, 35] was 27.16%, the Disease index [16, 36] was 13.44 and the “Efficacy (%)” value [16, 36] was 61.65%. For the same molecule, the Disease index [16, 37] was 40.33, the “Efficacy (%)” value [16, 37] was 29.55% and the Disease index [16, 38] was 7.11. For the same molecule, the “Efficacy (%)” value [16, 38] was 34.38%, the Disease index [16, 39] was 13.63 and the “Efficacy (%)” value [16, 39] was 67.15%. For the same molecule, the Disease index [16, 40] was 31.50, the “Efficacy (%)” value [16, 40] was 47.00% and the Disease index [16, 41] was 7.92. The “Efficacy (%)” value [16, 41] was 35.77%, the Disease index [16, 42] was 10.88 and the “Efficacy (%)” value [16, 42] was 75.54%. For the same molecule, the Disease index [16, 43] was 30.42, the “Efficacy (%)” value [16, 43] was 54.57% and the Disease index [16, 44] was 6.29. The “Efficacy (%)” value [16, 44] was 39.15%, the Disease index [16, 45] was 4.52 and the “Efficacy (%)” value [16, 45] was 86.22%. For the same molecule, the Disease index [16, 46] was 19.45, the “Efficacy (%)” value [16, 46] was 63.47% and the inhibition at 0.3 µg/mL ([17]; 0.3 mg/L) was 11.3%. The inhibition at 3 µg/mL ([17]; 3 mg/L) was 18.4% and the inhibition at 30 µg/mL ([17]; 30 mg/L) was 21.4%.
